Structures can show the parent of a compound that is named as a salt.
system: production of amyloid beta protein Aβ(1-42) (γ-secretase) in human WT-APP overexpressing CHO cells; assay: Cell-Based γ-Secretase Assay with ELISA Readout; conditions: human WT-APP overexpressing CHO cells, ~24 hours at 37° C., Aβ(1-42) ELISA; footnotes: a = geometric mean of >15 determinations, b = single determination, c = geometric mean of 7-15 determinations; read-out: Aβ 42B IC50 (Geometric Mean of 2-6 Determinations)
Experimental: Cell-Based γ-Secretase Assay with ELISA Readout
The ability of compounds to modulate production of amyloid beta protein Aβ(1-42) was determined using human WT-APP overexpressing CHO cells. Cells were plated at 22,000 cells/100 μL well in 96 well tissue culture treated, clear plates (Falcon) in DMEM/F12 based medium and incubated for 24 hours at 37° C. Compounds for testing were diluted in 100% DMSO to achieve an eleven points, half log, dose response for IC50 determinations. Compounds were added in fresh medium to achieve 1% final DMSO. Appropriate vehicle or inhibitor controls were added into control wells individually to obtain minimum or maximum inhibition values, respectively, for the assay signal window before the plates were incubated for ˜24 hours at 37° C. This procedure produces conditioned media in each well which is tested for Aβ(1-42) levels in the ELISA detection step described next. The remaining cell cultures in each well are also tested for cell toxicity as described below.
Coating of ELISA assay plates was initiated by addition of 50 μL/well of an in-house Aβ(1-42) specific antibody at (3 μg/mL) in 0.1 M NaHCO3 (pH 9.0) into black 384-well Maxisorp® plates (Nunc) and incubated overnight at 4° C. The capture antibody was then aspirated from the ELISA assay plates and plates were washed 4×100 μL with Wash Buffer (Dulbecco's PBS, 0.05% Tween 20). 90 μL/well of Blocking Buffer (Dulbecco's PBS, 1.0% BSA (Sigma A7030)) was then added to plates. Ambient temperature incubation was allowed to proceed for a minimum of two hours. Blocking buffer was then removed and 20 μL/well Assay Buffer (Dulbecco's PBS, 1.0% BSA (Sigma A7030), 0.05% Tween 20) was then added. At this point, 40 μL (in duplicate) of experimental conditioned media (described above) were transferred into wells of the blocked ELISA plates containing the capture antibody, followed by overnight incubation at 4° C. Cell toxicity was also measured in the corresponding remaining cells after removal of the conditioned media for the Aβ(1-42) assay by a colorimetric cell proliferation assay (CellTiter 96® AQueous One Solution Cell Proliferation Assay, Promega) according to the manufacturer's instructions.
After overnight incubation of the ELISA assay plates at 4° C., unbound Aβ peptides were removed via (4×100 μL) washes with Wash Buffer. Europium (Eu) labeled (custom labeled, Perkin Elmer) Aβ(1-16) 6e10 Monoclonal Antibody (Covance #SIG-39320) was added, (50 μL/well Eu-6e10 @ 1:10,000, 20 uM EDTA) in Assay Buffer. Incubation at ambient temperature for a minimum of 2 hours was followed by (4×100 μL) washes with Wash Buffer, before 30 μL/well of Delfia Enhancement Solution (Perkin Elmer) was added. Following an one hour ambient temperature incubation, the plates were read on an EnVision plate reader (Perkin Elmer) using standard DELFIA TRF settings. Data analysis including inhibitory IC50 determination was performed using nonlinear regression fit analysis (in-house software) and the appropriate plate mean values for the maximum and minimum inhibition controls.

**Q.** For `Cc1cn(-c2ccc3n(c2=O)CCN(CCOc2ccc(Cl)cc2C(F)(F)F)C3=O)cn1` [Example 22, 2-{2-[4-chloro-2-(trifluoromethyl)phenoxy]ethyl}-7-(4-methyl-1H-imidazol-1-yl)-3,4-dihydro-2H-pyrido[1,2-a]pyrazine-1,6-dione], which IC50 is on record?
**A.** Its IC50 is 103 nM.

**Q.** Which IC50 does the source give for `Cc1cn(-c2ccc3n(c2=O)CCN(CCOc2ccc(F)c(Cl)c2Cl)C3=O)cn1` [Example 23, 2-[2-(2,3-dichloro-4-fluorophenoxy)ethyl]-7-(4-methyl-1H-imidazol-1-yl)-3,4-dihydro-2H-pyrido[1,2-a]pyrazine-1,6-dione] here?
**A.** The IC50 was 173 nM.

**Q.** How did the IC50 turn out when `Cc1cn(-c2ccc3n(c2=O)CCN(CCOc2ccccc2-c2cc(C)ns2)C3=O)cn1` [Example 24, 7-(4-methyl-1H-imidazol-1-yl)-2-{2-[2-(3-methylisothiazol-5-yl)phenoxy]ethyl}-3,4-dihydro-2H-pyrido[1,2-a]pyrazine-1,6-dione] was run?
**A.** The IC50 was 104 nM.

**Q.** Which IC50 does the source give for `Cc1cn(-c2ccc3n(c2=O)CCN(CCOc2ccccc2C2CCC2)C3=O)cn1` [Example 25, 2-[2-(2-cyclobutylphenoxy)ethyl]-7-(4-methyl-1H-imidazol-1-yl)-3,4-dihydro-2H-pyrido[1,2-a]pyrazine-1,6-dione] here?
**A.** Its IC50 is 73.2 nM.

**Q.** Which IC50 does the source give for `Cc1cn(-c2ccc3n(c2=O)CCN(CCOc2cccc4c2oc2ccccc24)C3=O)cn1` [Example 26, 2-[2-(dibenzo[b,d]furan-4-yloxy)ethyl]-7-(4-methyl-1H-imidazol-1-yl)-3,4-dihydro-2H-pyrido[1,2-a]pyrazine-1,6-dione] here?
**A.** The IC50 was 95.7 nM.

**Q.** For `Cc1cn(-c2ccc3n(c2=O)CCN(CCOc2ccc(Cl)c(Cl)c2Cl)C3=O)cn1` [Example 27, 7-(4-methyl-1H-imidazol-1-yl)-2-[2-(2,3,4-trichlorophenoxy)ethyl]-3,4-dihydro-2H-pyrido[1,2-a]pyrazine-1,6-dione], which IC50 is on record?
**A.** The IC50 was 103 nM.

**Q.** For `Cc1cn(-c2ccc3n(c2=O)CCN(CCCOc2cc(C)c(Cl)c(C)c2)C3=O)cn1` [Example 28, 2-[3-(4-chloro-3,5-dimethylphenoxy)propyl]-7-(4-methyl-1H-imidazol-1-yl)-3,4-dihydro-2H-pyrido[1,2-a]pyrazine-1,6-dione], which IC50 is on record?
**A.** Its IC50 is 31.9 nM.

**Q.** How did the IC50 turn out when `Cc1cn(-c2ccc3n(c2=O)CCN(CCOc2ccc(C(F)(F)F)cc2C(F)(F)F)C3=O)cn1` [Example 29, 2-{2-[2,4-bis(trifluoromethyl)phenoxy]ethyl}-7-(4-methyl-1H-imidazol-1-yl)-3,4-dihydro-2H-pyrido[1,2-a]pyrazine-1,6-dione] was run?
**A.** Its IC50 is 154 nM.

**Q.** With `Cc1cn(-c2ccc3n(c2=O)CCN(CCOc2cc(Cl)c(Cl)cc2Cl)C3=O)cn1` [Example 30, 7-(4-methyl-1H-imidazol-1-yl)-2-[2-(2,4,5-trichlorophenoxy)ethyl]-3,4-dihydro-2H-pyrido[1,2-a]pyrazine-1,6-dione] as the compound, how does the IC50 read?
**A.** Its IC50 is 132 nM.

**Q.** With `Cc1cn(-c2ccc3n(c2=O)CCN(CCOc2ccc(C(F)(F)F)nc2C(F)(F)F)C3=O)cn1` [Example 31, 2-(2-{[2,6-bis(trifluoromethyl)pyridin-3-yl]oxy}ethyl)-7-(4-methyl-1H-imidazol-1-yl)-3,4-dihydro-2H-pyrido[1,2-a]pyrazine-1,6-dione] as the compound, how does the IC50 read?
**A.** Its IC50 is 96.8 nM.

**Q.** How did the IC50 turn out when `Cc1cn(-c2ccc3n(c2=O)CCN(CCCOc2ccccc2C(C)(C)C)C3=O)cn1` [Example 32, 2-[3-(2-tert-butylphenoxy)propyl]-7-(4-methyl-1H-imidazol-1-yl)-3,4-dihydro-2H-pyrido[1,2-a]pyrazine-1,6-dione, trifluoroacetate salt] was run?
**A.** Its IC50 is 143 nM.

**Q.** With `Cc1cn(-c2ccc3n(c2=O)CCN(CCOc2cccc(Cl)c2Cl)C3=O)cn1` [Example 33, 2-[2-(2,3-dichlorophenoxy)ethyl]-7-(4-methyl-1H-imidazol-1-yl)-3,4-dihydro-2H-pyrido[1,2-a]pyrazine-1,6-dione, trifluoroacetate salt] as the compound, how does the IC50 read?
**A.** Its IC50 is 194 nM.

**Q.** How did the IC50 turn out when `Cc1cn(-c2ccc3n(c2=O)CCN(CCOc2ccccc2-c2ccccc2)C3=O)cn1` [Example 34, 2-[2-(biphenyl-2-yloxy)ethyl]-7-(4-methyl-1H-imidazol-1-yl)-3,4-dihydro-2H-pyrido[1,2-a]pyrazine-1,6-dione, trifluoroacetate salt] was run?
**A.** The IC50 was 262 nM.

**Q.** `Cc1cn(-c2ccc3n(c2=O)CCN(CCOc2ccc(F)c(C(F)(F)F)c2Cl)C3=O)cn1` [Example 35, 2-{2-[2-chloro-4-fluoro-3-(trifluoromethyl)phenoxy]ethyl}-7-(4-methyl-1H-imidazol-1-yl)-3,4-dihydro-2H-pyrido[1,2-a]pyrazine-1,6-dione, trifluoroacetate salt] was tested. Which IC50 did it give?
**A.** The IC50 was 133 nM.

**Q.** With `Cc1cn(-c2ccc3n(c2=O)CCN(CCOc2ccccc2-c2csc(C)n2)C3=O)cn1` [Example 36, 7-(4-methyl-1H-imidazol-1-yl)-2-{2-[2-(2-methyl-1,3-thiazol-4-yl)phenoxy]ethyl}-3,4-dihydro-2H-pyrido[1,2-a]pyrazine-1,6-dione, trifluoroacetate salt] as the compound, how does the IC50 read?
**A.** The IC50 was 302 nM.

**Q.** With `Cc1cn(-c2ccc3n(c2=O)CCN(CCOc2ccccc2-c2sncc2C)C3=O)cn1` [Example 37, 7-(4-methyl-1H-imidazol-1-yl)-2-{2-[2-(4-methylisothiazol-5-yl)phenoxy]ethyl}-3,4-dihydro-2H-pyrido[1,2-a]pyrazine-1,6-dione, trifluoroacetate salt] as the compound, how does the IC50 read?
**A.** Its IC50 is 219 nM.

**Q.** For `Cc1ccc(OCCN2CCn3c(ccc(-n4cnc(C)c4)c3=O)C2=O)c(-c2cc(C(F)(F)F)on2)c1` [Example 38, 7-(4-methyl-1H-imidazol-1-yl)-2-(2-{4-methyl-2-[5-(trifluoromethyl)isoxazol-3-yl]phenoxy}ethyl)-3,4-dihydro-2H-pyrido[1,2-a]pyrazine-1,6-dione, trifluoroacetate salt], which IC50 is on record?
**A.** Its IC50 is 293 nM.

**Q.** With `Cc1cn(-c2ccc3n(c2=O)CCN(CCOc2ccccc2-c2cc(C(F)(F)F)on2)C3=O)cn1` [Example 39, 7-(4-methyl-1H-imidazol-1-yl)-2-(2-{2-[5-(trifluoromethyl)isoxazol-3-yl]phenoxy}ethyl)-3,4-dihydro-2H-pyrido[1,2-a]pyrazine-1,6-dione, trifluoroacetate salt] as the compound, how does the IC50 read?
**A.** The IC50 was 525 nM.

**Q.** With `Cc1cn(-c2ccc3n(c2=O)CCN(CCOc2ccccc2-c2csc(C(F)(F)F)n2)C3=O)cn1` [Example 40, 7-(4-methyl-1H-imidazol-1-yl)-2-(2-{2-[2-(trifluoromethyl)-1,3-thiazol-4-yl]phenoxy}ethyl)-3,4-dihydro-2H-pyrido[1,2-a]pyrazine-1,6-dione] as the compound, how does the IC50 read?
**A.** The IC50 was 19.6 nM.

**Q.** With `Cc1cn(-c2ccc3n(c2=O)CCN(CCOc2ccccc2-c2coc(C)n2)C3=O)cn1` [Example 41, 7-(4-methyl-1H-imidazol-1-yl)-2-{2-[2-(2-methyl-1,3-oxazol-4-yl)phenoxy]ethyl}-3,4-dihydro-2H-pyrido[1,2-a]pyrazine-1,6-dione, trifluoroacetate salt] as the compound, how does the IC50 read?
**A.** Its IC50 is 156 nM.

**Q.** Which IC50 does the source give for `Cc1cn(-c2ccc3n(c2=O)CCN(CCOc2cccc4oc5ccccc5c24)C3=O)cn1` [Example 42, 2-[2-(dibenzo[b,d]furan-1-yloxy)ethyl]-7-(4-methyl-1H-imidazol-1-yl)-3,4-dihydro-2H-pyrido[1,2-a]pyrazine-1,6-dione, trifluoroacetate salt] here?
**A.** Its IC50 is 5.31 nM.

**Q.** How did the IC50 turn out when `Cc1cn(-c2ccc3n(c2=O)CCN(CCOc2ccc(Cl)cc2-c2ccon2)C3=O)cn1` [Example 43, 2-[2-(4-chloro-2-isoxazol-3-ylphenoxy)ethyl]-7-(4-methyl-1H-imidazol-1-yl)-3,4-dihydro-2H-pyrido[1,2-a]pyrazine-1,6-dione, trifluoroacetate salt] was run?
**A.** Its IC50 is 283 nM.

**Q.** `Cc1cn(-c2ccc3n(c2=O)CCN(CCOc2ccc(Cl)cc2C(C)(C)O)C3=O)cn1` [Example 44, 2-{2-[4-chloro-2-(1-hydroxy-1-methylethyl)phenoxy]ethyl}-7-(4-methyl-1H-imidazol-1-yl)-3,4-dihydro-2H-pyrido[1,2-a]pyrazine-1,6-dione, trifluoroacetate salt] was tested. Which IC50 did it give?
**A.** The IC50 was 142 nM.

**Q.** How did the IC50 turn out when `Cc1cn(-c2ccc3n(c2=O)CCN(CCOc2ccc(Cl)c(F)c2C(F)(F)F)C3=O)cn1` [Example 45, 2-{2-[4-chloro-3-fluoro-2-(trifluoromethyl)phenoxy]ethyl}-7-(4-methyl-1H-imidazol-1-yl)-3,4-dihydro-2H-pyrido[1,2-a]pyrazine-1,6-dione, trifluoroacetate salt] was run?
**A.** The IC50 was 66.3 nM.
